This is an account of results in patent US20130123201A1, “MODULATION OF CYTOKINE-INDUCED CHRONIC INFLAMMATORY RESPONSES” (UNIVERSITY OF MANITOBA, priority 2010, published 2013).

The subject of experiment [1] is Human fibroblast-like synovial (FLS) cells. Description: ELISA of chemokine production in FLS tissue culture supernatants. It counts as cell-based. How it is done:
ELISA immunoassay: Tissue culture supernatants were centrifuged at 1500× g for 5-7 min to obtain cell-free samples and the aliquots were stored at −20° C. until further use. Production of chemokine Gro-α was monitored in the tissue culture supernatants by ELISA employing human Gro-α DuoSet (R&D Systems Inc.) as per the manufacturer's instructions. Production of cytokine TNF-α was monitored in the tissue culture supernatants using specific antibody pairs from eBioscience, Inc., and production of IL-8 was monitored using specific antibody pairs from R&D Systems, Inc., as per the manufacturer's instructions. The concentration of the cytokines or chemokines in the tissue culture supernatants was evaluated by establishing a standard curve with serial dilutions of the recombinant human cytokines or chemokines as required.
ELISA immunoassay: Tissue culture supernatants were centrifuged at 1500× g for 5-7 min to obtain cell-free samples and the aliquots were stored at −20° C. until further use. Production of chemokine Gro-α was monitored in the tissue culture supernatants by ELISA employing human Gro-α DuoSet (R&D Systems Inc.) per the manufacturer's instructions. […] The concentrations of the cytokines or chemokines in the tissue culture supernatants were evaluated by establishing a standard curve with serial dilutions of the recombinant human cytokines or chemokines as required.
A general note: ELISA stands for enzyme-linked immunosorbent assay.

In experiment [2] the test system is NF-κB subunits p50 and p65. Description: Translocation of NF-κB subunits p50 and p65 (nuclear extract immunoblots). The settings on record: 20 ng/mL, 30 mins. The experiment is classed as cell-based, human. How it is done: Translocation of NF-κB subunits p50 and p65: Nuclear extracts were prepared employing NE-PER® extraction reagents (Thermo Fisher Scientific, Toronto, ON, Canada) as per the manufacturer's instructions. In order to monitor direct NF-κB activation, equivalent nuclear extracts (5-8 μg) were resolved on 4-12% NuPAGE® Bis-Tris gels (Invitrogen Canada Inc.) and transferred to nitrocellulose membranes. The membranes were blocked with TBST containing 3% fish skin gelatin (Sigma-Aldrich), and probed with antibodies specific for either NE-κB subunit p50 or p65, in TBST containing 1% fish gelatin. The membranes were also probed with antibody to human histone protein HADC-1 to assess the equivalent protein loading. […]
The presence of common targets in macrophages was supported by the observation that both IL-32 and IL-17 induced similar level of IL-23 mRNA expression (FIG. 8A) and chemokine IL-8 production in human macrophage-like THP-1 cells (FIG. 7C). […] Therefore to further evaluate similarity of induced downstream response in synovial fibroblasts, this study analyzed the direct activation of transcription factor NF-κB. […] We also monitored the activity of NF-κB using a luminescence assay in-vitro employing rabbit synovial fibroblast cell line (HIG-82) in the presence of IL-32 and IL-17. The activation of NF-κB was monitored after 4 and 6 hr of treatment. […]
(In general: A western blot detects proteins with antibodies after separation by electrophoresis.)

The subject of experiment [3] is NF-κB in rabbit synoviocyte HIG-82 cells. Description: NF-κB-reporter luminescence assay. It counts as cell-based. The settings on record: rabbit synovial fibroblast cell line HIG-82, 4 and 6 hr. How it is done: NF-κB-reporter luminensence assay: Rabbit synoviocyte HIG-82 cells were transiently transfected with pNFκB-MetLuc2-Reporter Vector (Clontech laboratories Inc., Mountain View, Calif., USA) or the provided control vector as per the manufacturer's instructions. Various stimulants were added to the transfected cells in culture media containing 1% (v/v) FBS. The cells were stimulated with either recombinant human IL-32 or IL-17, and in parallel with known activators of NF-κB such as pro-inflammatory recombinant human cytokines TNF-αand IL-1β, or bacterial lipopolysaccharide (LPS), for 4 or 6 hr. The activation of NF-κB was monitored by employing the Ready-To-Glow Secreted NF-κB Luciferase Reporter Assay (Clontech) as per the manufacturer's instructions.
NF-κB-reporter luminensence assay: In order to monitor direct NF-κB activation in synoviocytes, a rabbit synoviocyte cell line, HIG-82 (ATCC® CRL-1832) was transiently transfected with pNFκB-MetLuc2-Reporter Vector (Clontech laboratories Inc., Mountain View, Calif., USA) or the provided control vector as per the manufacturer's instructions. Various stimulants were added to the transfected cells in culture media containing 1% (v/v) FBS. […] The activation of NF-κB was monitored by employing the Ready-To-Glow Secreted NF-κB Luciferase Reporter Assay (Clontech Laboratories Inc.) per the manufacturer's instructions.

“Also recorded” adds a separate entry of the source.

Take “IL-17: Recombinant human cytokine IL-17A/F from eBioscience, used as stimulant”: the “Chemokine Gro-α production” value in experiment [1] is given as “robust induction; also recorded: robust Gro-α production”. The “Effect on TNF-α-induced chemokine Gro-α production” value in experiment [1] (TNF-α 10 ng/mL plus cytokine 20 ng/mL, 24 hr) is reported as “synergistically enhanced”. Moreover, the “Nuclear translocation of NF-κB p50” value in experiment [2] (FLS cells and macrophage-like THP-1 cells) was “mediated nuclear translocation”. The “Nuclear translocation of NF-κB subunit p65” value in experiment [2] (FLS cells and macrophages) was “mediated”. Also, the “Activation of transcription factor NF-κB” value in experiment [3] is given as “induced direct activation; also recorded: activated”.
